Experiments:
Format in all cases: cell-based
P2X1R = biological target: T1, P2X1R (Mus musculus, UniProt P51576); assay: β,γ-meATP-induced intracellular Ca2+ mobilization in J774 cells; settings: 10 μM
T1 construct: endogenous in cells; host or cells: J774 cells
T1 sequence (P51576 1-399): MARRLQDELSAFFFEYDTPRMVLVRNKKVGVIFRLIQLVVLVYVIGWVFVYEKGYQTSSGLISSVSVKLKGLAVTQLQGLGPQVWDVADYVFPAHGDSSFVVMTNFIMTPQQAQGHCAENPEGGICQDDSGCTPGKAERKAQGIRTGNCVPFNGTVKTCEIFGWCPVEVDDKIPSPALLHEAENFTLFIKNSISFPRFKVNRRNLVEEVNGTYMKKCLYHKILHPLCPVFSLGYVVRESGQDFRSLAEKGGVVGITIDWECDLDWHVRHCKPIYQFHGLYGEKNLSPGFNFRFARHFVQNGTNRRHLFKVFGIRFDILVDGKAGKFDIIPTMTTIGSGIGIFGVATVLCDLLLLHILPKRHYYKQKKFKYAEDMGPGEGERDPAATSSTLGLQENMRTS
Method: (§1) Mouse peritoneal macrophages, PC12 cells, J774 cells, and HEPG2 cells were analyzed by fluorescence microscopy to measure the intracellular Ca^2+ concentrations ([Ca^2+]i). Cells were incubated with 2 μM Fura-2-AM (Molecular Probes) for 30 min, and the [Ca^2+]i mobilization was measured in the F340/F380 ratios with a FlexStation 3 multimode microplate reader (Molecular Devices). Cells were plated in translucent 96-well plates (BD Falcon) for 15 min and then washed and incubated in a saline solution with 150 NaCl, 5 KCl, 1 MgCl2, 1 CaCl2, and 10 HEPES (pH 7.4) for 30 min before measurements of [Ca^2+]i. The Ca^2+ influx was induced by stimulating cells with P2 receptor agonists. P2 receptor antagonists were added 10 min before P2 receptor agonist addition. […] Ionomycin was considered a positive control, and the other recordings were normalized in relation to the AUC.

P2Y14R = biological target: T2, P2Y14R (Mus musculus, UniProt Q9ESG6); assay: UDP-glucose-activated [Ca2+]i shifts in mouse peritoneal macrophages; settings: 1 μM
T2 construct: endogenous in cells; host or cells: mouse peritoneal macrophages
T2 sequence (Q9ESG6 1-338): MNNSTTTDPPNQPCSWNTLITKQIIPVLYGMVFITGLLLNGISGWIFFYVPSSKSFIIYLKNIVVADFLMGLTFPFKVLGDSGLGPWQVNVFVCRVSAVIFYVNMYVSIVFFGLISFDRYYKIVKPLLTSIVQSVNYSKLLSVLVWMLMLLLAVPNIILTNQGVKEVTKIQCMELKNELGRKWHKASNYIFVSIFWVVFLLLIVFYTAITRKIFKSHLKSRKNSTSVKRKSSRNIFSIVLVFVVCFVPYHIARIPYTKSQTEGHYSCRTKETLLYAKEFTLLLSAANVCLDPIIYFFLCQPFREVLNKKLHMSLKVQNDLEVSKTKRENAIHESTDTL
Method: as §1

P2X2R = biological target: T3, P2X2R (Rattus norvegicus, UniProt P49653); assay: ATP-induced [Ca2+]i shifts in PC12 cells; settings: 1 μM
T3 construct: endogenous in cells; host or cells: PC12 cells
T3 sequence (P49653 1-472): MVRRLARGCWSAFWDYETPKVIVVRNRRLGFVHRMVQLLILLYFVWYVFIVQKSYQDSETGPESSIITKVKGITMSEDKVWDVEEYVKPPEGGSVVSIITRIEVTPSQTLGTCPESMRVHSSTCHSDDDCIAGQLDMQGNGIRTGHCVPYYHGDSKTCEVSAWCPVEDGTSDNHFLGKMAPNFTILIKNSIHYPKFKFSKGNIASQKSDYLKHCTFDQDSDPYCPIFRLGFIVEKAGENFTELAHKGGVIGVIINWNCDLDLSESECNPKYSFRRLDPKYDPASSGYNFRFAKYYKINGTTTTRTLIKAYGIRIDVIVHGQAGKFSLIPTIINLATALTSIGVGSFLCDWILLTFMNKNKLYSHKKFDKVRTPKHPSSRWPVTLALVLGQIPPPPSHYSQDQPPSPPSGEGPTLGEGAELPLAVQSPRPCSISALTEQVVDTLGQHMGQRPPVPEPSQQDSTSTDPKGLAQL
Method: as §1

P2X4R = biological target: T4, P2X4R (Rattus norvegicus, UniProt P51577); assay: ATP-induced [Ca2+]i shifts potentiated by ivermectin in NR8383 alveolar macrophage cell line; settings: 1 μM; NR8383 cells
T4 construct: endogenous in cells; host or cells: NR8383 rat alveolar macrophage cell line
T4 sequence (P51577 1-388): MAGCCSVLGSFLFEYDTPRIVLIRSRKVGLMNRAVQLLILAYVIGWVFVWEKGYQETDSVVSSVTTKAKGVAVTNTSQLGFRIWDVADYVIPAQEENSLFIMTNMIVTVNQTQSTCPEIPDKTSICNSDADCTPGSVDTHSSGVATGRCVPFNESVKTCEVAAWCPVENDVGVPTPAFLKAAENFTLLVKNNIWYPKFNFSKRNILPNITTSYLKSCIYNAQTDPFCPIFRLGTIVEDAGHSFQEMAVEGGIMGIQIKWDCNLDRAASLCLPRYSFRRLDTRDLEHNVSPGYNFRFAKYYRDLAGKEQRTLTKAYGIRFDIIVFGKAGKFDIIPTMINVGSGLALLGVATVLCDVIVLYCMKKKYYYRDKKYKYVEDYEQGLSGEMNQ

P2X3R = assay: α,β-meATP-induced [Ca2+]i shift; settings: 10 μM
Method: as §1

P2Y2R = biological target: T5, P2Y2R (Mus musculus, UniProt P35383); assay: 2-S-UTP-activated [Ca2+]i shifts in mouse peritoneal macrophages; settings: 1 μM
T5 construct: endogenous in cells; host or cells: mouse peritoneal macrophages
Method: as §1

P2Y1R = biological target: T6, P2Y1R (Mus musculus, UniProt P49650); assay: ADP-induced [Ca2+]i shifts in mouse peritoneal macrophages; settings: 1 μM
T6 construct: endogenous in cells; host or cells: mouse peritoneal macrophages
Method: as §1

T5 sequence (P35383 whole entry): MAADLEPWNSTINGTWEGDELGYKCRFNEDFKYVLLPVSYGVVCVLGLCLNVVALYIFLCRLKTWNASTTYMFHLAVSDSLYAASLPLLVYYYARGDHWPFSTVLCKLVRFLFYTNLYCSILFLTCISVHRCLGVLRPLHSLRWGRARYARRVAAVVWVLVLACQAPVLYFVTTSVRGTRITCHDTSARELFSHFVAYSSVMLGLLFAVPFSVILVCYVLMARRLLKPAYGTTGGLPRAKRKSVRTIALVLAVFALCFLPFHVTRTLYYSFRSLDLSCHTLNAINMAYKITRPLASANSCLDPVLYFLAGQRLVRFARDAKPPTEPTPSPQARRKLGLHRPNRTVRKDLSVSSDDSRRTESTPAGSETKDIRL
T6 sequence (P49650 whole entry): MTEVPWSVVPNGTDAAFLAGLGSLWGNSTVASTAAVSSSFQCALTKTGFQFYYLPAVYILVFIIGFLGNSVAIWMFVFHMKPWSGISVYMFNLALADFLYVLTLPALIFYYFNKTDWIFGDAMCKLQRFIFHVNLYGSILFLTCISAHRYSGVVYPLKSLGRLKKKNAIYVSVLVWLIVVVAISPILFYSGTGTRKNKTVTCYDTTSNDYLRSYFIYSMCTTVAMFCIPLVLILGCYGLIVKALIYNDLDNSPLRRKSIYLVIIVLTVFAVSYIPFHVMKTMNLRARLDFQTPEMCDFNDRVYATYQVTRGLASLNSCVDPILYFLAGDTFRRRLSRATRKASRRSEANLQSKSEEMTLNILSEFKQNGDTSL

O=C(Nc1cccc(C(=O)Nc2ccc(S(=O)(=O)O)c3cc(S(=O)(=O)O)cc(S(=O)(=O)O)c23)c1)Nc1cccc(C(=O)Nc2ccc(S(=O)(=O)O)c3cc(S(=O)(=O)O)cc(S(=O)(=O)O)c23)c1 [NF023, reference compound]
Effect on β,γ-meATP-induced intracellular Ca2+ mobilization (P2X1R): inhibited

O=C(O)c1cc(-c2ccc(C3CCNCC3)cc2)c2ccc(-c3ccc(C(F)(F)F)cc3)cc2c1 [PPNT]
Effect on UDP-glucose-activated [Ca2+]i shifts (P2Y14R): inhibited

COc1cc(S(=O)(=O)O)cc2cc(S(=O)(=O)O)c(NC(=O)c3ccc(C)c(NC(=O)c4cccc(NC(=O)Nc5cccc(C(=O)Nc6cc(C(=O)Nc7cc8c(OC)cc(S(=O)(=O)O)cc8cc7S(=O)(=O)O)ccc6C)c5)c4)c3)cc12 [NF770]
Effect on ATP-induced [Ca2+]i shifts (P2X2R): inhibited

O=C1CN=C(c2cccc(Br)c2)c2oc3ccccc3c2N1 [Compound 5BDBD]
Effect on ATP-induced [Ca2+]i shifts potentiated by 1 μM ivermectin (P2X4R): inhibited

Nc1ncnc2c1ncn2[C@@H]1O[C@H](COP(=O)(O)OP(=O)(O)OP(=O)(O)O)[C@H]2OC3(O[C@H]21)C([N+](=O)[O-])=CC(=[N+]([O-])[O-])C=C3[N+](=O)[O-] (stereo partly shown) [TNP-ATP, reference compound]
Effect on activity of P2X3R agonist α,β-meATP (P2X3R): inhibited

Cc1ccc2c(c1)C=Cc1cc(C)ccc1C2c1cn(Cc2ccc(C(=O)Nc3nn[nH]n3)o2)c(=O)[nH]c1=S [AR-C 118925XX]
Effect on 2-S-UTP-activated [Ca2+]i shifts (P2Y2R): inhibited

CNc1ncnc2c1ncn2[C@H]1C[C@H](OP(=O)(O)O)[C@@H](COP(=O)(O)O)O1 [MRS 2179]
Effect on ADP-induced [Ca2+]i shifts (P2Y1R): inhibited
